Results: patent publication US20050107423A1, “Quinolone antibacterial agents” (priority 2003, published 2005)
≈ marks a conversion by molar mass, not a printed value.

Tests used:
Assay in all cases: Antibacterial assay, microtitration MIC (Test A)
Assay type in all cases: cell-based
[1] = test system: E. faecalis MGH-2; conditions: strain MGH-2; for MIC: Enterococcus faecalis, MGH2, Gram Positive Bacteria, read-out: Minimum Inhibitory Concentrations E. faecalis MGH-2
Description: (§1) The compounds of the present invention were tested against an assortment of Gram-negative and Gram-positive organisms using standard microtitration techniques (Cohen et. al., Antimicrob., 1985;28:766; Heifetz, et. al., Antimicrob., 1974;6:124). The results of the evaluation are shown in Tables 1A and B, wherein “-” means no data.

[2] = test system: S pyogenes C203; conditions: Gram Positive Bacteria; strain C203; read-out: Minimum Inhibitory Concentrations S pyogenes C203
Description: as §1

[3] = test system: S. aureus UC-76; conditions: Staphylococcus aureus, UC76, Gram Positive Bacteria; strain UC-76; read-out: Minimum Inhibitory Concentrations S. aureus UC-76
Description: as §1

[4] = test system: S. pneumo SV-1; conditions: Gram Positive Bacteria; strain SV-1; read-out: Minimum Inhibitory Concentrations S. pneumo SV-1
Description: as §1

[5] = test system: E. coli EC-2549; conditions: strain EC-2549; for MIC: Escherichia coli, EC2549, Gram Negative Bacteria, read-out: Minimum Inhibitory Concentrations E. coli EC-2549; for Minimum Inhibitory Concentrations E. coli EC-2549: Gram Negative Bacteria
Description: as §1

[6] = test system: H. influenzae HI-3542; conditions: strain HI-3542; for MIC: Haemophilus influenzae, HI3542, Gram Negative Bacteria, read-out: Minimum Inhibitory Concentrations H. influenzae HI-3542; for Minimum Inhibitory Concentrations H. influenzae HI-3542: Gram Negative Bacteria
Description: as §1

[7] = test system: M. catarrhalis BC-3531; conditions: strain BC-3531; for MIC: Moraxella catarrhalis, BC3531, Gram Negative Bacteria, read-out: Minimum Inhibitory Concentrations M. catarrhalis BC-3531; for Minimum Inhibitory Concentrations M. catarrhalis BC-3531: Gram Negative Bacteria
Description: as §1

SMILES	MIC [1] [µg/mL]	MIC [2] [µg/mL]	MIC [3] [µg/mL]	MIC [4] [µg/mL]	MIC [5] [µg/mL]	MIC [6] [µg/mL]	MIC [7] [µg/mL]	further results
COc1c(N2CC3CC(O)C(O)C3C2)c(F)cc2c(=O)c(C(=O)O)cn(C3CC3)c12 (stereo not drawn)	0.25 (≈ 0.597 µM)	0.25 (≈ 0.597 µM)	0.008 (≈ 0.0191 µM)	0.25 (≈ 0.597 µM)	–	–	–	–
COc1c(N2CCC(C(CO)CO)C2)c(F)cc2c(=O)c(C(=O)O)cn(C3CC3)c12 (stereo not drawn) [drawing 340]	0.03 (≈ 0.0714 µM)	0.06 (≈ 0.143 µM)	0.004 (≈ 0.00951 µM)	0.03 (≈ 0.0714 µM)	–	–	–	–
Cc1c(N2CCC(CCO)C2)c(F)cc2c(=O)c(C(=O)O)cn(C3CC3)c12 (stereo not drawn) [drawing 341]	2 (≈ 5.34 µM)	0.06 (≈ 0.16 µM)	0.125 (≈ 0.334 µM)	0.03 (≈ 0.0801 µM)	–	–	–	–
COc1c(N2CCC(CO)C2)c(F)cc2c(=O)c(C(=O)O)cn(C3CC3)c12 (stereo not drawn) [drawing 342]	0.06 (≈ 0.159 µM)	0.06 (≈ 0.159 µM)	0.00403 (≈ 0.0107 µM)	0.06 (≈ 0.159 µM)	–	–	–	–
Cc1c(N2CCC(C(O)C(F)F)C2)c(F)cc2c(=O)c(C(=O)O)cn(C3CC3)c12 (stereo not drawn) [drawing 343]	0.06 (≈ 0.146 µM)	0.125 (≈ 0.305 µM)	0.004 (≈ 0.00975 µM)	0.06 (≈ 0.146 µM)	–	–	–	–
COc1c(N2CCC(C(O)C(F)F)C2)c(F)cc2c(=O)c(C(=O)O)cn(C3CC3)c12 (stereo not drawn) [drawing 349]	0.125 (≈ 0.293 µM)	0.25 (≈ 0.586 µM)	0.008 (≈ 0.0188 µM)	0.06 (≈ 0.141 µM)	–	–	–	–
COc1c(N2CCC(C(O)CO)C2)c(F)cc2c(=O)c(C(=O)O)cn(C3CC3)c12 (stereo not drawn) [drawing 355]	0.03 (≈ 0.0738 µM)	0.03 (≈ 0.0738 µM)	0.002 (≈ 0.00492 µM)	0.03 (≈ 0.0738 µM)	–	–	–	–
COc1c(N2CCC(C3(O)CC3)C2)c(F)cc2c(=O)c(C(=O)O)cn(C3CC3)c12 (stereo not drawn) [drawing 360]	0.125 (≈ 0.311 µM)	0.25 (≈ 0.621 µM)	0.015 (≈ 0.0373 µM)	0.125 (≈ 0.311 µM)	–	–	–	–
COc1c(N2CCC(C(O)C3(O)CC3)C2)c(F)cc2c(=O)c(C(=O)O)cn(C3CC3)c12 (stereo not drawn) [drawing 361]	0.5 (≈ 1.16 µM)	0.25 (≈ 0.578 µM)	0.015 (≈ 0.0347 µM)	0.25 (≈ 0.578 µM)	–	–	–	–
Cc1c(N2CCC(C(O)C(F)(F)F)C2)c(F)cc2c(=O)c(C(=O)O)cn(C3CC3)c12 (stereo not drawn) [drawing 363]	–	0.5 (≈ 1.17 µM)	0.0015 (≈ 0.0035 µM)	0.25 (≈ 0.584 µM)	–	–	–	Minimum Inhibitory Concentrations E. faecalis MGH-2 ([1]; Gram Positive Bacteria): 0.25 µg/mL
Cc1c(N2CCC(C(F)(F)CO)C2)c(F)cc2c(=O)c(C(=O)O)cn(C3CC3)c12 (stereo not drawn) [drawing 368]	0.125 (≈ 0.305 µM)	0.25 (≈ 0.609 µM)	0.008 (≈ 0.0195 µM)	0.06 (≈ 0.146 µM)	–	–	–	–
Cc1c(N2CCC(C(O)C(C)(F)F)C2)c(F)cc2c(=O)c(C(=O)O)cn(C3CC3)c12 (stereo not drawn) [drawing 369]	0.25 (≈ 0.589 µM)	0.25 (≈ 0.589 µM)	0.004 (≈ 0.00942 µM)	0.125 (≈ 0.295 µM)	–	–	–	–
COCC(O)C1CCN(c2c(F)cc3c(=O)c(C(=O)O)cn(C4CC4)c3c2C)C1 (stereo not drawn) [drawing 370]	1 (≈ 2.47 µM)	1 (≈ 2.47 µM)	0.06 (≈ 0.148 µM)	0.5 (≈ 1.24 µM)	–	–	–	–
COc1c(N2CCC(CO)(CO)C2)c(F)cc2c(=O)c(C(=O)O)cn(C3CC3)c12 [drawing 377]	0.5 (≈ 1.23 µM)	0.25 (≈ 0.615 µM)	0.06 (≈ 0.148 µM)	0.25 (≈ 0.615 µM)	–	–	–	–
O=C(O)c1cn(-c2ccc(F)cc2F)c2nc(N3C[C@@H](CO)[C@@H](CO)C3)c(F)cc2c1=O [drawing 398]	0.5 (≈ 1.11 µM)	0.5 (≈ 1.11 µM)	0.06 (≈ 0.134 µM)	0.5 (≈ 1.11 µM)	–	–	–	–
Cc1c(N2CC(CO)C(C)(C)C2)c(F)cc2c(=O)c(C(=O)O)cn(C3CC3)c12 (stereo not drawn) [drawing 418]	–	–	–	–	0.06 (≈ 0.154 µM)	0.015 (≈ 0.0386 µM)	0.008 (≈ 0.0206 µM)	–
Cc1c(N2CC(CO)C3(CC3)C2)c(F)cc2c(=O)c(C(=O)O)cn(C3CC3)c12 (stereo not drawn) [drawing 419]	–	–	–	–	0.125 (≈ 0.323 µM)	0.015 (≈ 0.0388 µM)	0.008 (≈ 0.0207 µM)	–
COc1c(N2CC(CO)C3(CC3)C2)c(F)cc2c(=O)c(C(=O)O)cn(C3CC3)c12 (stereo not drawn) [drawing 420]	–	–	–	–	0.06 (≈ 0.149 µM)	0.008 (≈ 0.0199 µM)	0.008 (≈ 0.0199 µM)	–

SMILES	MIC [1] [µg/mL]	MIC [2] [µg/mL]	MIC [3] [µg/mL]	MIC [4] [µg/mL]	MIC [5] [µg/mL]	MIC [6] [µg/mL]	MIC [7] [µg/mL]	further results
O=C(O)c1cn(C2CC2)c2c(Cl)c(N3CC(CO)C4(CC4)C3)c(F)cc2c1=O (stereo not drawn) [drawing 421]	–	–	–	–	0.06 (≈ 0.147 µM)	0.004 (≈ 0.00983 µM)	0.008 (≈ 0.0197 µM)	–
Cc1c(N2CC(C(O)CO)C3(CC3)C2)c(F)cc2c(=O)c(C(=O)O)cn(C3CC3)c12 (stereo not drawn) [drawing 422]	–	–	–	–	0.125 (≈ 0.3 µM)	0.015 (≈ 0.036 µM)	0.03 (≈ 0.072 µM)	–
Cc1c(N2CC(C(C)O)C(C)(C)C2)c(F)cc2c(=O)c(C(=O)O)cn(C3CC3)c12 (stereo not drawn) [drawing 423]	–	–	–	–	0.25 (≈ 0.621 µM)	0.06 (≈ 0.149 µM)	0.015 (≈ 0.0373 µM)	–
COCCOCC(O)C1CN(c2c(F)cc3c(=O)c(C(=O)O)cn(C4CC4)c3c2C)CC1(C)C (stereo not drawn) [drawing 424]	–	–	–	–	2 (≈ 4.2 µM)	0.5 (≈ 1.05 µM)	0.25 (≈ 0.525 µM)	–
Cc1c(N2CC(C(O)CO)C(C)(C)C2)c(F)cc2c(=O)c(C(=O)O)cn(C3CC3)c12 (stereo not drawn) [drawing 425]	–	–	–	–	0.5 (≈ 1.19 µM)	0.06 (≈ 0.143 µM)	0.06 (≈ 0.143 µM)	–
COCC(O)C1CN(c2c(F)cc3c(=O)c(C(=O)O)cn(C4CC4)c3c2C)CC1(C)C (stereo not drawn) [drawing 426]	–	–	–	–	1 (≈ 2.31 µM)	0.25 (≈ 0.578 µM)	0.125 (≈ 0.289 µM)	–
Cc1c(N2CC(C)(CO)C(C)(CO)C2)c(F)cc2c(=O)c(C(=O)O)cn(C3CC3)c12 (stereo not drawn) [drawing 437]	–	–	–	–	–	–	–	Minimum Inhibitory Concentrations E. coli EC-2549 [5]: 0.5 µg/mL; Minimum Inhibitory Concentrations H. influenzae HI-3542 [6]: 0.06 µg/mL; Minimum Inhibitory Concentrations M. catarrhalis BC-3531 [7]: 0.06 µg/mL
Cc1c(N2CC(C)(CO)C(C)(CO)C2)c(F)cc2c(=O)c(C(=O)O)cn(C3CC3)c12 (stereo not drawn) [drawing 438]	–	–	–	–	–	–	–	Minimum Inhibitory Concentrations E. coli EC-2549 [5]: 2 µg/mL; Minimum Inhibitory Concentrations H. influenzae HI-3542 [6]: 0.125 µg/mL; Minimum Inhibitory Concentrations M. catarrhalis BC-3531 [7]: 0.25 µg/mL
Cc1c(N2C[C@@H]3CC[C@@H](O)[C@@H]3C2)c(F)cc2c(=O)c(C(=O)O)cn(C3CC3)c12 [drawing 442]	–	–	–	–	0.03 (≈ 0.0776 µM)	0.008 (≈ 0.0207 µM)	0.008 (≈ 0.0207 µM)	–
COc1c(N2C[C@@H]3CC[C@@H](O)[C@@H]3C2)c(F)cc2c(=O)c(C(=O)O)cn(C3CC3)c12 [drawing 443]	–	–	–	–	0.25 (≈ 0.621 µM)	0.03 (≈ 0.0745 µM)	0.03 (≈ 0.0745 µM)	–
Nc1nc(-n2cc(C(=O)O)c(=O)c3cc(F)c(N4C[C@@H]5CC[C@@H](O)[C@@H]5C4)c(Cl)c32)c(F)cc1F [drawing 444]	–	–	–	–	0.25 (≈ 0.505 µM)	0.03 (≈ 0.0606 µM)	0.03 (≈ 0.0606 µM)	–
CC(=O)O[C@@H]1CC[C@H]2CN(c3c(F)cc4c(=O)c(C(=O)O)cn(-c5nc(N)c(F)cc5F)c4c3Cl)C[C@H]21 [drawing 445]	–	–	–	–	0.5 (≈ 0.931 µM)	0.03 (≈ 0.0559 µM)	0.06 (≈ 0.112 µM)	–
Cc1c(N2C[C@@H]3C[C@@H](O)[C@@H](O)[C@@H]3C2)c(F)cc2c(=O)c(C(=O)O)cn(C3CC3)c12 [drawing 446]	–	–	–	–	0.125 (≈ 0.311 µM)	0.008 (≈ 0.0199 µM)	0.03 (≈ 0.0745 µM)	–
O=C(O)c1cn(C2CC2)c2c(OC(F)F)c(N3CC4CC(O)C(O)C4C3)c(F)cc2c1=O (stereo not drawn) [drawing 448]	–	–	–	–	0.5 (≈ 1.1 µM)	0.03 (≈ 0.066 µM)	0.06 (≈ 0.132 µM)	–
COc1c(N2C[C@@H]3CC[C@@](O)(CO)[C@@H]3C2)c(F)cc2c(=O)c(C(=O)O)cn(C3CC3)c12 [drawing 449]	–	–	–	–	0.5 (≈ 1.16 µM)	0.06 (≈ 0.139 µM)	0.06 (≈ 0.139 µM)	–
Cc1c(N2C[C@@H]3CC[C@@](O)(CO)[C@@H]3C2)c(F)cc2c(=O)c(C(=O)O)cn(C3CC3)c12 [drawing 450]	–	–	–	–	0.125 (≈ 0.3 µM)	0.015 (≈ 0.036 µM)	0.03 (≈ 0.072 µM)	–
COc1c(N2C[C@]3(CO)CCC[C@]3(CO)C2)c(F)cc2c(=O)c(C(=O)O)cn(C3CC3)c12 [drawing 451]	–	–	–	–	2 (≈ 4.48 µM)	0.125 (≈ 0.28 µM)	0.25 (≈ 0.56 µM)	–
Cc1c(N2CC3(CO)CCCC3(CO)C2)c(F)cc2c(=O)c(C(=O)O)cn(C3CC3)c12 (stereo not drawn) [drawing 452]	–	–	–	–	0.125 (≈ 0.29 µM)	0.015 (≈ 0.0348 µM)	0.03 (≈ 0.0697 µM)	–
